Legend:
APLP2 in T47D cells = assay: APLP2 turnover after cycloheximide treatment (western blot); assay type: cell-based, human; conditions: for Normalized APLP2 expression: 50 ug/ml
Description: (§1) Additionally, the degradation rates of APLP2 and HER2 was tested on T47D cells. For the assay, T47D cells were plate at 10^6 cells/well in 6 well plates (Corning #3516). The cells were allowed to grow overnight at 37° C. in 5% CO2 in media consisting of RPMI 1640+10% FBS+1 mM sodium pyruvate+10 mM HEPES+10 ug/mL Insulin+5 mL Penicillin/Streptomycin/Glutamine. The following day, cells were treated with 50 ug/ml cycloheximide (Sigma #C4859-1ML) for 0, 0.5, 1.5, 2.5, 3.5, 4.5 and 5.5 hours. After the incubation, cells were washed once with 1 ml of DPBS/CM, and subsequently placed on ice and then the DPBS/CM was replaced with 800 uL of lysis buffer [1×RIPA (Boston Bioproducts, Cat #BP-116)+Protease inhibitor (Thermo Fisher, 1861280), cells were scraped and lysates were transferred to 1.5 ml Eppendorf tubes. Afterwards, the samples were sonicated with 25 pulses, 1 sec each at 50% power. Afterwards, the samples were frozen at −20° C. The samples were later thawed and 52 ul of each sample was mixed with 20 ul 4× Laemmli (Invitrogen, NP0007)+8 uL 10× Reducing agent (Invitrogen, Cat #NP0009)]. Samples were boiled at 95° C. for 10 minutes, centrifuged at 14000 RPM for 10 minutes at room temperature. 40 uL of each sample was loaded into three Wedged 4-20% TRIS-Glycine gels (Invitrogen, XPO4125BOX) and ran at 150V. The gels were then transferred into two PVDF membranes (ThermoFisher, IB24001) with iBlot2 dry blotting system (ThermoFisher, 1321001). The membranes were then blocked with 5% milk (BioRad, Cat #170-6404) in TBS for 3 hours at room temperature. Primary antibodies, rabbit-anti-HER2 antibody (Dako, Cat #A048529) or rabbit-anti-APLP2 antibody (abcam, Cat #ab140624) in 2.5% Milk+0.1% Tween (Sigma, Cat #P8074) in TRIS buffered saline (TBS; ThermoFisher, Cat #28376), were then added to the membranes and incubated at 4° C. overnight. The membranes were then washed 3 times with TBS for 5 minutes at room temperature. After, anti-rabbit-HRP antibodies (Promega, #W4011) and anti-actin-HRP antibody (Santa Cruz, Cat #sc-47779) in 2.5% Milk+0.1% Tween in TBS were added to the membranes and incubated at room temperature for 1 hour. The membranes were then washed 2 times with TBS+0.1% Tween at room temperature for 5 minutes, and then washed 2 more times with TBS room temperature for 5 minutes. The blot was then developed with ECL Detection Reagent (GE healthcare, Cat #RPN2106) and imaged with Azure C300 imager. Band quantification (mean fluorescence intensity minus background) was performed using ImageJ. Table 11 summarizes HER2, APLP, or T47D cells after cycloheximide (CHX) treatment normalized to cells having no CHX contact.

HER2 in T47D cells = assay: HER2 turnover after cycloheximide treatment (western blot); assay type: cell-based, human; conditions: for Normalized HER2 expression: 50 ug/ml
Description: as §1

What does the source list for `C[C@@H]1C[C@@H]([C@H](O)CC2CC(=O)NC(=O)C2)C(=O)[C@@H](C)C1` [CHX, cycloheximide]?
Normalized APLP2 expression (APLP2 in T47D cells; CHX treatment 0.5 hours): 41%; Normalized APLP2 expression (APLP2 in T47D cells; CHX treatment 1.5 hours): 22%; Normalized APLP2 expression (APLP2 in T47D cells; CHX treatment 2.5 hours): 9%; Normalized APLP2 expression (APLP2 in T47D cells; CHX treatment 3.5 hours): 7%; Normalized APLP2 expression (APLP2 in T47D cells; CHX treatment 4.5 hours): 8%; Normalized APLP2 expression (APLP2 in T47D cells; CHX treatment 5.5 hours): 6%; APLP2 degradation (APLP2 in T47D cells; after 5.5 hours): 94%; APLP2 degraded (APLP2 in T47D cells; in 1.5 hours): Eighty-eight; Normalized HER2 expression (HER2 in T47D cells; CHX treatment 0.5 hours): 57%; Normalized HER2 expression (HER2 in T47D cells; CHX treatment 1.5 hours): 78%; Normalized HER2 expression (HER2 in T47D cells; CHX treatment 2.5 hours): 68%; Normalized HER2 expression (HER2 in T47D cells; CHX treatment 3.5 hours): 64%; Normalized HER2 expression (HER2 in T47D cells; CHX treatment 4.5 hours): 88%; Normalized HER2 expression (HER2 in T47D cells; CHX treatment 5.5 hours): 78%; HER2 degradation (HER2 in T47D cells; after 5.5 hours): 22%
